Read-outs that look alike come from different tables or passages of the source.

One assay concerns SW480. The experiment in a line: cells. In kind it is cell-based. The following applies: for IC50: read-out: Basal_Viability ATP SW480 summarized IC50.
The test system of a further assay is SNU-C1. The experiment in a line: cells. The following applies: for IC50: read-out: Basal_Viability ATP SNU-C1 summarized IC50. In kind it is cell-based.
Another assay concerns HT-29. The experiment in a line: cells. Type of assay: cell-based. The settings on record: for IC50: read-out: Basal_Viability ATP HT-29 summarized IC50.
The next assay deals with RKO. The experiment in a line: cells. In kind it is cell-based. The settings on record: for IC50: read-out: Basal_Viability ATP RKO summarized IC50.
For assay [1], the system named is ECFC/ADSC co-culture cell nuclei number. The following applies: for IC50: read-out: VEGF_ADSC\ECFC Angio Hoechst NucArea summarized IC50.
Assay [2] has as its system endothelial tube formation in co-cultures of ECFCs and ADSCs treated with VEGF. The experiment in a line: cells. In kind it is cell-based, human. The settings on record: for IC50: read-out: VEGF_ADSC\ECFC Angio CD31 TubeArea summarized IC50.
The next assay deals with Colo320. The experiment in a line: cells. The following applies: for IC50: read-out: Basal_Viability ATP Colo 320 summarized IC50. Type of assay: cell-based.
For a further assay, the system named is DLD-1. The experiment in a line: cells. In kind it is cell-based. The following applies: for IC50: read-out: Basal_Viability ATP DLD-1 summarized IC50.
The test system of assay [3] is HCT116 cells treated with a GSK3β inhibitor. The experiment in a line: cells. In kind it is cell-based. The following applies: for IC50: read-out: GSK3b inh pretreated_Viability ATP HCT116 summarized IC50.
The test system of another assay is HCT116. The experiment in a line: cells. Type of assay: cell-based. The settings on record: for IC50: read-out: Basal_Viability ATP HCT116 summarized IC50.
[4] abbreviates: assay number 26, GSK3b inhibitor pretreated.
[5] abbreviates: assay number 24, concentration response.
Setting [6] is: assay number 30, concentration response.
Where [7] appears, read: assay number 28, concentration response.
Where [8] appears, read: assay number 29, concentration response.
Where [9] appears, read: assay number 27, concentration response.
The mark [10] stands for this setting: assay number 23, concentration response.
Setting [11] is: assay number 26, GSK3b inhibitor pretreated, concentration response.
Where [12] appears, read: assay number 25, basal, concentration response.

Regarding `CCCCCCCC(=O)OCC(COC(=O)CCCCCCC)OC(=O)CCCCCCC` [NCGC00091285-03], in the assay on SW480 (assay number 24, basal), the “Basal_Viability ATP SW480 IC50/EC50” value is given as over 20 µM. For the same compound, the “Basal_Viability ATP SNU-C1 IC50/EC50” value with SNU-C1 (assay number 30, basal) was over 20 µM. The “Basal_Viability ATP HT-29 IC50/EC50” value in the assay on HT-29 (assay number 28, basal) is given as over 20 µM. Further, the “Basal_Viability ATP RKO IC50/EC50” value in the assay on RKO (assay number 29, basal) is over 20 µM. For the same compound, the “VEGF_ADSC\ECFC Angio Hoechst NucArea IC50/EC50” value in assay [1] is over 10 µM. For the same compound, the “VEGF_ADSC\ECFC Angio CD31 TubeArea IC50/EC50” value in [2] is over 10 µM. For the same compound, in the assay on Colo320 (assay number 27, basal), the “Basal_Viability ATP Colo 320 IC50/EC50” value is recorded as over 20 µM. In addition, the “Basal_Viability ATP DLD-1 IC50/EC50” value in the assay on DLD-1 (assay number 23, basal) is reported as over 20 µM. Further, the “GSK3b inh pretreated_Viability ATP HCT116 IC50/EC50” value in assay [3] (setting [4]) is reported as over 20 µM. The “Basal_Viability ATP HCT116 IC50/EC50” value with HCT116 (assay number 25, basal) is reported as over 20 µM.

As to `O=C([O-])CCC(=O)OC[C@@H](NC(=O)C(Cl)Cl)[C@H](O)c1ccc([N+](=O)[O-])cc1.[Na+]` [NCGC00094619-06], the “Basal_Viability ATP SW480 IC50/EC50” value with SW480 (setting [5]) is given as over 20 µM. Further, the “Basal_Viability ATP SNU-C1 IC50/EC50” value in the assay with SNU-C1 (setting [6]) is on record as over 20 µM. Besides, the “Basal_Viability ATP HT-29 IC50/EC50” value in the assay on HT-29 (setting [7]) is on record as over 20 µM. For the same compound, the “Basal_Viability ATP RKO IC50/EC50” value in the assay on RKO (setting [8]) is over 20 µM. The “VEGF_ADSC\ECFC Angio Hoechst NucArea IC50/EC50” value in [1] was over 10 µM. The “VEGF_ADSC\ECFC Angio CD31 TubeArea IC50/EC50” value in [2] was over 10 µM. Moreover, in the assay on Colo320 (setting [9]), the “Basal_Viability ATP Colo 320 IC50/EC50” value is over 20 µM. In addition, in the assay on DLD-1 (setting [10]), the “Basal_Viability ATP DLD-1 IC50/EC50” value is reported as over 20 µM. In addition, the “GSK3b inh pretreated_Viability ATP HCT116 IC50/EC50” value in assay [3] (setting [11]) is over 20 µM. Further, the “Basal_Viability ATP HCT116 IC50/EC50” value in the assay with HCT116 (setting [12]) is given as over 20 µM.

A word on the IC50: it is the concentration at which inhibition is half-maximal. With `Oc1c(Br)cc(Br)c2cccnc12` [NCGC00094815-05], the IC50 was 0.132 µM in the assay with SW480; 0.366 µM in the assay with SNU-C1; 5.25 µM in the assay on HT-29; 0.163 µM in the assay with RKO; over 10 µM in [1]; over 10 µM in [2]. Moreover, the IC50 came to 0.114 µM with Colo320, 0.157 µM in the assay on DLD-1, 0.183 µM in assay [3] and 0.193 µM with HCT116.

Regarding `Nc1c2ccccc2nc2ccccc12` [NCGC00094857-05], the IC50 was over 20 µM in the assay on SW480 (assay number 24, basal); over 6.67 µM in the assay with SNU-C1 (assay number 30, basal); over 20 µM in the assay on HT-29 (assay number 28, basal); over 6.67 µM in the assay with RKO (assay number 29, basal); over 10 µM in assay [1]; over 10 µM in assay [2]. The IC50 with Colo320 (assay number 27, basal) is 8.81 µM; with DLD-1 (assay number 23, basal) it was over 20 µM; in assay [3] (setting [4]) it was 3.87 µM; in the assay on HCT116 (assay number 25, basal), 2.02 µM.

Take `CCCCCCCCCCCCCCCC(=O)OC/C=C(C)/C=C/C=C(C)/C=C/C1=C(C)CCCC1(C)C` [NCGC00095056-04]: the IC50 with SW480 (assay number 24, basal) was over 20 µM; in the assay with SNU-C1 (assay number 30, basal), over 20 µM; in the assay with HT-29 (assay number 28, basal) it was over 20 µM; in the assay with RKO (assay number 29, basal), over 20 µM; in assay [1] it was over 10 µM; in [2], over 10 µM. Further, the IC50 in the assay on Colo320 (assay number 27, basal) was over 20 µM; with DLD-1 (assay number 23, basal) it was over 20 µM; in assay [3] (setting [4]), over 20 µM; in the assay with HCT116 (assay number 25, basal) it was over 20 µM.

Regarding `O=C(OCCO)c1ccccc1O` [NCGC00159379-04], the “Basal_Viability ATP SW480 IC50/EC50” value in the assay on SW480 (setting [5]) is reported as over 20 µM. Moreover, the “Basal_Viability ATP SNU-C1 IC50/EC50” value in the assay with SNU-C1 (setting [6]) was over 20 µM. In addition, the “Basal_Viability ATP HT-29 IC50/EC50” value in the assay with HT-29 (setting [7]) is given as over 20 µM. The “Basal_Viability ATP RKO IC50/EC50” value in the assay with RKO (setting [8]) was over 20 µM. Further, in assay [1], the “VEGF_ADSC\ECFC Angio Hoechst NucArea IC50/EC50” value was over 10 µM. The “VEGF_ADSC\ECFC Angio CD31 TubeArea IC50/EC50” value in assay [2] is over 10 µM. The “Basal_Viability ATP Colo 320 IC50/EC50” value in the assay on Colo320 (setting [9]) is recorded as over 20 µM. The “Basal_Viability ATP DLD-1 IC50/EC50” value in the assay with DLD-1 (setting [10]) is on record as over 20 µM. In addition, the “GSK3b inh pretreated_Viability ATP HCT116 IC50/EC50” value in assay [3] (setting [11]) is over 20 µM. The “Basal_Viability ATP HCT116 IC50/EC50” value in the assay with HCT116 (setting [12]) is over 20 µM.

As to `CC(=O)NC(=O)c1ccccc1O` [NCGC00160362-02], the IC50 in the assay on SW480 (assay number 24, basal) is over 20 µM; in the assay on SNU-C1 (assay number 30, basal), over 20 µM; in the assay on HT-29 (assay number 28, basal), over 20 µM; with RKO (assay number 29, basal) it was over 20 µM; in assay [1], over 10 µM; in assay [2], over 10 µM. Moreover, the half-maximal inhibitory concentration (IC50) with Colo320 (assay number 27, basal) was over 20 µM; in the assay on DLD-1 (assay number 23, basal) it was over 20 µM; in [3] (setting [4]), over 20 µM; in the assay with HCT116 (assay number 25, basal), over 20 µM.

The values are drawn from article PMC4503722, “Novel Phenotypic Outcomes Identified for a Public Collection of Approved Drugs from a Publicly Accessible Panel of Assays” (PLoS ONE, 2015).
